Laboratory results from patent publication US8497279B2, “Treatment for discoid lupus” (Rigel Pharmaceuticals, Inc., priority 2011, dated 2013).
Structures can show the parent of a compound that is named as a salt.

Test system: JAK1/JAK2 pathway
Assay: A549 epithelial line stimulated with IFNγ, ICAM-1 surface expression (FACS)
Assay type: cell-based, human
Details: A549 cells, IFNγ 75 ng/mL, 24 hours, ICAM-1 expression; read-out: Example 5 IC50
Excerpt: The JAK activity of the compounds described herein may also be characterized by assaying the effect of compounds I and II described herein on A549 lung epithelial cells and U937 cells. A549 lung epithelial cells and U937 cells up-regulate ICAM-1 (CD54) surface expression in response to a variety of different stimuli. Therefore, using ICAM-1 expression as readout, test compound effects on different signaling pathways can be assessed in the same cell type. Stimulation with IL-1β through the IL-1β receptor activates the TRAF6/NFκB pathway resulting in up-regulation of ICAM-1. IFNγ induces ICAM-1 up-regulation through activation of the JAK1/JAK2 pathway. The up-regulation of ICAM-1 can be quantified by flow cytometry across a compound dose curve and EC50 values are calculated. […]
A549 lung epithelial cells up-regulate ICAM-1 (CD54) surface expression in response to a variety of different stimuli. Therefore, using ICAM-1 expression as readout, compound effects on different signaling pathways can be assessed in the same cell type. […] In this example, the up-regulation of ICAM-1 by IFNγ was assessed. […]
On day three, the cell media was removed and the cells were washed with 200 μL PBS (phosphate buffered saline). […] Cells were washed with ice cold FACS buffer (PBS+2% FBS) and surface ICAM-1 expression was analyzed by flow cytometry. […]

## C#CCOc1ccc(Nc2nc(Nc3ccc(C)c(S(=O)(=O)NC(=O)CC)c3)ncc2F)cc1 [VI, 5-Fluoro-N2-[4-methyl-3-(N-propionylaminosulfonyl)phenyl]-N4-[4-(2-propynyloxy)phenyl]-2,4-pyrimidinediamine Arginine Salt]
  IC50: 4.97 µM
